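Following 48 hours of exposure in 96-well plates, responses at five concentrations were used to interpolate endpoints linearly. Here, GI50 denotes the concentration required for 50% inhibition of growth.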 Calls of active or inactive are those of the source. Rule as the data show it: active = GI50 up to about 1.1 µM and inactive = higher.
Experiments:
Test in all cases: NCI-60 cell line screen, 48 h
SW-620 = system: SW-620
NCI-H226 = system: NCI-H226
IGROV-1 = system: IGROV-1
HOP-62 = system: HOP-62
SNB-75 = system: SNB-75
SF-268 = system: SF-268
MDA-MB-231 = system: MDA-MB-231
SK-MEL-5 = system: SK-MEL-5
HL-60 = system: HL-60
MDA-MB-435 = system: MDA-MB-435
Hs-578T = system: Hs-578T
RXF 393 = system: RXF 393
OVCAR-5 = system: OVCAR-5
EKVX = system: EKVX
T47D = system: T47D
HCT-15 = system: HCT-15
SN12C = system: SN12C
786-0 = system: 786-0
TK-10 = system: TK-10
UACC-257 = system: UACC-257
HT-29 = system: HT-29
A498 = system: A498
NCI/ADR-RES = system: NCI/ADR-RES
SK-MEL-2 = system: SK-MEL-2
KM12 = system: KM12
COLO 205 = system: COLO 205
ACHN = system: ACHN
M14 = system: M14
HCT-116 = system: HCT-116
SNB-19 = system: SNB-19
U-251 = system: U-251
SK-MEL-28 = system: SK-MEL-28
RPMI-8226 = system: RPMI-8226
CAKI-1 = system: CAKI-1
CCRF-CEM = system: CCRF-CEM
HOP-92 = system: HOP-92
SK-OV-3 = system: SK-OV-3
NCI-H460 = system: NCI-H460
OVCAR-8 = system: OVCAR-8
A549 = system: A549
UO-31 = system: UO-31
PC-3 = system: PC-3
LOX IMVI = system: LOX IMVI
BT-549 = system: BT-549
NCI-H23 = system: NCI-H23
Malme-3M = system: Malme-3M
DU-145 = system: DU-145
UACC-62 = system: UACC-62
SF-295 = system: SF-295
MCF7 = system: MCF7
SF-539 = system: SF-539
OVCAR-3 = system: OVCAR-3
NCI-H522 = system: NCI-H522
K562 = system: K562
HCC 2998 = system: HCC 2998
MOLT-4 = system: MOLT-4
OVCAR-4 = system: OVCAR-4
SR = system: SR

CN(C)CCNCCCNc1c2ccccc2nc2cccc([N+](=O)[O-])c12
GI50 (SW-620): < 0.0144 µM (active)
GI50 (NCI-H226): 0.0248 µM (active)
GI50 (IGROV-1): < 0.0205 µM (active)
GI50 (HOP-62): 0.0288 µM (active)
GI50 (SNB-75): 0.0173 µM (active)
GI50 (SF-268): < 0.016 µM (active)
GI50 (MDA-MB-231): < 0.0129 µM (active)
GI50 (SK-MEL-5): < 0.0181 µM (active)
GI50 (HL-60): < 0.0139 µM (active)
GI50 (MDA-MB-435): < 0.0144 µM (active)
GI50 (Hs-578T): < 0.0386 µM (active)
GI50 (RXF 393): 0.0138 µM (active)
GI50 (OVCAR-5): < 0.0148 µM (active)
GI50 (EKVX): < 0.017 µM (active)
GI50 (T47D): 0.0387 µM (active)
GI50 (HCT-15): 0.0826 µM
GI50 (SN12C): < 0.0208 µM (active)
GI50 (786-0): < 0.0126 µM (active)
GI50 (TK-10): 0.046 µM (active)
GI50 (UACC-257): 0.22 µM (active)
GI50 (HT-29): < 0.0125 µM (active)
GI50 (A498): 0.021 µM (active)
GI50 (NCI/ADR-RES): 0.91 µM (active)
GI50 (SK-MEL-2): 0.0197 µM (active)
GI50 (KM12): 0.027 µM (active)
GI50 (COLO 205): < 0.0141 µM (active)
GI50 (ACHN): 0.017 µM (active)
GI50 (M14): 0.0224 µM (active)
GI50 (HCT-116): < 0.0161 µM (active)
GI50 (SNB-19): 0.0298 µM (active)
GI50 (U-251): < 0.0175 µM (active)
GI50 (SK-MEL-28): 0.188 µM (active)
GI50 (RPMI-8226): < 0.0138 µM (active)
GI50 (CAKI-1): 0.0385 µM (active)
GI50 (CCRF-CEM): < 0.0121 µM (active)
GI50 (HOP-92): < 0.0156 µM (active)
GI50 (SK-OV-3): 0.0424 µM (active)
GI50 (NCI-H460): < 0.0121 µM (active)
GI50 (OVCAR-8): < 0.0146 µM (active)
GI50 (A549): < 0.017 µM (active)
GI50 (UO-31): 0.0741 µM (active)
GI50 (PC-3): < 0.0171 µM (active)
GI50 (LOX IMVI): < 0.0148 µM (active)
GI50 (BT-549): 0.157 µM (active)
GI50 (NCI-H23): < 0.0121 µM (active)
GI50 (Malme-3M): 0.0461 µM (active)
GI50 (DU-145): < 0.0159 µM (active)
GI50 (UACC-62): 0.0446 µM (active)
GI50 (SF-295): < 0.0163 µM (active)
GI50 (MCF7): 0.0102 µM (active)
GI50 (SF-539): 0.0676 µM (active)
GI50 (OVCAR-3): < 0.0157 µM (active)
GI50 (NCI-H522): < 0.01 µM (active)
GI50 (K562): < 0.0119 µM (active)
GI50 (HCC 2998): < 0.0126 µM (active)
GI50 (MOLT-4): < 0.01 µM (active)
GI50 (OVCAR-4): < 0.0129 µM (active)
GI50 (SR): < 0.01 µM (active)

C/C(=N\Nc1nc2ccccc2o1)c1ccncn1
GI50 (SW-620): 0.0455 µM (active)
GI50 (NCI-H226): 0.228 µM (active)
GI50 (IGROV-1): 0.116 µM (active)
GI50 (HOP-62): 0.228 µM (active)
GI50 (SNB-75): 0.457 µM (active)
GI50 (SF-268): 0.132 µM (active)
GI50 (MDA-MB-231): 0.169 µM (active)
GI50 (SK-MEL-5): 0.181 µM (active)
GI50 (HL-60): 0.0218 µM (active)
GI50 (MDA-MB-435): 0.247 µM (active)
GI50 (Hs-578T): 0.955 µM (active)
GI50 (RXF 393): 2.29 µM (inactive)
GI50 (OVCAR-5): 4.36 µM (inactive)
GI50 (EKVX): 0.0526 µM (active)
GI50 (T47D): 0.0845 µM (active)
GI50 (HCT-15): 0.0476 µM
GI50 (SN12C): 0.225 µM (active)
GI50 (786-0): 0.0869 µM (active)
GI50 (TK-10): 1.12 µM (active)
GI50 (UACC-257): 0.396 µM (active)
GI50 (HT-29): 0.0356 µM (active)
GI50 (A498): 0.45 µM (active)
GI50 (NCI/ADR-RES): 0.19 µM (active)
GI50 (SK-MEL-2): 0.277 µM (active)
GI50 (KM12): 0.163 µM (active)
GI50 (COLO 205): 0.0427 µM (active)
GI50 (ACHN): 0.0638 µM (active)
GI50 (M14): 0.126 µM (active)
GI50 (HCT-116): 0.0713 µM (active)
GI50 (SNB-19): 0.432 µM (active)
GI50 (U-251): 0.162 µM (active)
GI50 (SK-MEL-28): 0.513 µM (active)
GI50 (RPMI-8226): 0.109 µM (active)
GI50 (CAKI-1): 0.0471 µM (active)
GI50 (CCRF-CEM): 0.0481 µM (active)
GI50 (HOP-92): 0.124 µM (active)
GI50 (SK-OV-3): 0.294 µM (active)
GI50 (NCI-H460): 0.0964 µM (active)
GI50 (OVCAR-8): 0.0929 µM (active)
GI50 (A549): 0.24 µM (active)
GI50 (UO-31): 0.0479 µM (active)
GI50 (PC-3): 0.31 µM (active)
GI50 (LOX IMVI): 0.124 µM (active)
GI50 (BT-549): 5.19 µM (inactive)
GI50 (NCI-H23): 0.36 µM (active)
GI50 (Malme-3M): 0.124 µM (active)
GI50 (DU-145): 1.26 µM (inactive)
GI50 (UACC-62): 0.28 µM (active)
GI50 (SF-295): 0.363 µM (active)
GI50 (MCF7): 0.0556 µM (active)
GI50 (SF-539): 0.258 µM (active)
GI50 (OVCAR-3): 0.0524 µM (active)
GI50 (NCI-H522): 0.0419 µM (active)
GI50 (K562): 0.0514 µM (active)
GI50 (HCC 2998): 1.02 µM (active)
GI50 (MOLT-4): 0.0305 µM (active)
GI50 (OVCAR-4): 0.129 µM (active)
GI50 (SR): 0.0647 µM (active)
